# Source: publication PMC10049495, “Antitumor Activity of PEGylated and TEGylated Phenothiazine Derivatives: Structure–Activity Relationship” (International Journal of Molecular Sciences, 2023)
# Read-outs that look alike come from different tables or passages of the source.
# How the values were obtained:
# Colo205 = settings: cited from earlier work
# [1] = system: malignant melanoma (MeWo) cells; assay: Cytotoxicity MTS assay on MeWo; type: cell-based, human; settings: Homo sapiens; MeWo, 48 h, MTS; tested 0.01-0.3 mM; read-out: Half maximal inhibition concentration (IC50)
# Procedure: (§1) Cell culture: NHDF, HeLa, HOS, HepG2, MCF7, MeWo and CT-26 cells were cultivated in complete Eagle’s Minimal Essential Medium alpha (aMEM) containing a 1% Penicillin–Streptomycin–Amphotericin B mixture and a 10% fetal bovine serum under 5% CO2 humidified atmosphere at 37 °C. LN-229 cells were cultivated in DMEM with a 1% Penicillin–Streptomycin–Amphotericin B mixture and a 5% fetal bovine serum. U-118 cells were cultivated in DMEM with a 1% Penicillin–Streptomycin–Amphotericin B mixture and a 10% fetal bovine serum. StemPro™ Accutase™ Cell Dissociation Reagent was used for passaging MeWo and U-118 cells, and TrypLE Express was used for all other cell lines.
# (§2) The working solutions were prepared by diluting the stock solutions with complete medium so that the final concentration of DMSO in the cell culture was 1%. The working solutions were used for incubation. Control cells were treated only with complete cell culture medium containing 1% DMSO.
# (§3) Cytotoxicity MTS assay: In order to perform the MTS assay, cells were placed in culture-treated 96-well plates at densities of 5 × 10^3 cells/well (NHDF and CT-26), 7 × 10^3 cells/well (MCF7) and 10 × 10^3 cells/well (HOS, HeLa, HepG2, MeWo, LN-229, U-118) in 100 μL of a MEM medium/well and allowed to adhere for 24 h. After 24 h, the culture medium was replaced with the tested compound solutions at various concentrations, and the plates were incubated for another 48 h. Before the final reading, 20 μL CellTiter 96® Aqueous One Solution/well was added, and the plates were incubated for 1–4 h. Finally, the absorbance was recorded with a microplate reader at λ = 490 nm. The relative cell viability was expressed as a percentage of the viability of control, and the half maximal inhibitory concentration (IC50) was determined from the graphical representation of the cell viability vs. concentration. Graphical data were expressed as means ± standard error of the mean (S.E.M.). Statistical analysis was made with two-way ANOVA using Tukey’s multiple comparisons test. The difference was considered significant when p < 0.05. Data analysis was performed with GraphPad Prism software version 7.00 for Windows.
# [2] = system: liver cancer (HepG2) cells; assay: Cytotoxicity MTS assay on HepG2; type: cell-based, human; settings: for IC50: HepG2, 48 h; for Selectivity index (SI): IC50 NHDF / IC50 HepG2
# Procedure: as §1, §2, §3
# [3] = system: breast cancer (MCF7) cells; assay: Cytotoxicity MTS assay on MCF-7; type: cell-based, human; settings: for IC50: Homo sapiens, MCF7, MCF-7, 48 h, MTS, tested 0.01-0.3 mM, read-out: Half maximal inhibition concentration (IC50); for Selectivity index (SI): IC50 NHDF / IC50 MCF7
# Procedure: as §1, §2, §3
# [4] = system: normal human dermal fibroblasts (NHDF); assay: Cytotoxicity MTS assay on normal fibroblasts; type: cell-based; settings: Homo sapiens, 48 h, tested 0.01-0.3 mM, read-out: Half maximal inhibition concentration (IC50)
# Procedure: as §1, §2, §3
# [5] = Cytotoxicity MTS assay on normal fibroblasts; type: cell-based, human; settings: human, normal human dermal fibroblasts (NHDF), read-out: cell viability
# Procedure: as §1, §2, §3
# osteosarcoma (HOS) cells = assay: Cytotoxicity MTS assay on HOS; type: cell-based, human; settings: Homo sapiens, 48 h, tested 0.01-0.3 mM, read-out: Half maximal inhibition concentration (IC50)
# Procedure: as §1, §2, §3
# [6] = DPPH radical scavenging activity; settings: DPPH, 0.0019-1 mM
# Description: In this light, the antioxidant activity of the studied phenothiazine derivatives was investigated using DPPH assay, measuring the dependence of the free radical inhibition on the concentration as highlighted by a decreasing of the absorbance of DPPH when the concentration of the compound is increasing. The results, expressed in percentage of inhibition, are represented in Figure 4.
# Ex Vivo Radical Scavenging Activity: In order to evaluate antioxidant activity of the studied compounds, a bleaching method of the 1,1-diphenyl-2-picryl hydrazyl (DPPH) radical was used. Briefly, a stock solution of 2 mM of each compound in ethanol was prepared and then diluted to obtain 10 different concentrations from 1 mM to 0.0019 mM using a 96-well plate. The diluted solutions with different concentrations were mixed with an equal volume of ethanolic DPPH solution (0.05 mg/mL), and the mixtures were incubated in the dark at room temperature […] for 1 h. After incubation, the absorbance was read at 517 nm. Inhibition percentage was calculated using Equation (2), where Ac is the absorbance of the control sample (DPPH) and As is the absorbance of the mixtures. All measurements were made in triplicate. I % = (Ac-As)/Ac × 100 (2)
# [7] = Complex formation with Mg2+ (estimate of farnesyltransferase inhibition), FTIR/UV-vis; settings: 2/1 compound/MgCl2, 2 days at 37 °C, FTIR and UV-vis; taken as estimate of farnesyltransferase inhibition
# Procedure: To estimate the ability of the studied compounds to inhibit the FT, their ability to bind the Zn^2+ or Mg^2+ ions was investigated by incubation in similar conditions as in vitro antitumor tests. The experiments indicated the ability of TEGylated derivatives to bind Mg^2+ ions, as follows.
# After that, all the solutions were lyophilized, and the solid samples obtained were subjected to the FTIR spectroscopy measurements. Then, the mixtures that indicated complex formation were dissolved in DMSO, and their UV-vis spectra were recorded.
# [8] = system: mouse colon carcinoma cell line (CT26); assay: Cytotoxicity MTS assay on CT-26; type: cell-based; settings: for Selectivity index (SI): IC50 NHDF / IC50 CT-26; for IC50: CT-26, 48 h
# Procedure: as §1, §2, §3
# [9] = system: glioblastoma cell line (U-118); assay: Cytotoxicity MTS assay on U-118; type: cell-based, human; settings: Homo sapiens; U-118, 48 h, MTS; tested 0.01-0.3 mM; read-out: Half maximal inhibition concentration (IC50)
# Procedure: as §1, §2, §3
# [10] = system: glioblastoma (LN229) cells; assay: Cytotoxicity MTS assay on LN229; type: cell-based, human; settings: Homo sapiens, LN-229, LN229, 48 h, tested 0.01-0.3 mM, read-out: Half maximal inhibition concentration (IC50)
# Procedure: as §1, §2, §3
# [11] = Solubility test in water with 1% DMSO; type: physicochemical; settings: water with 1% of DMSO, read-out: concentration up to which the compound is soluble
# Procedure: Solubility tests were performed to establish the maximum concentration of the compounds that might be used for in vitro tests by dissolving 0.003 mmol of compound in 1mL of water (H2O) with 1% of DMSO. The amount of solvent was increased until the compound was completely dissolved. The volume of solvent corresponding to the solving point was used to calculate the concentration. The TEGylated compounds were soluble under 0.3 mM (PTF) and 0.2 mM (PTMA, PTEA), and PEGylated compounds were soluble at to a concentration of 2 mM.
# [12] = system: cervical carcinoma (HeLa) cells; assay: Cytotoxicity MTS assay on HeLa; type: cell-based, human; settings: for Selectivity index (SI): IC50 NHDF / IC50 HeLa
# Procedure: as §1, §2, §3
# [13] = Glutamine imination/transimination (amino acid binding) followed by NMR; settings: 1/1 molar ratio with glutamine, MEM medium, 37 °C, 48 h
# Procedure: The ability of the studied compounds to bind amino acids by imitation or transamination processes was investigated for glutamine amino acid. To do this, all compounds were incubated in the presence of glutamine for 48 h in a MEM solution to simulate in vitro tests on cancer cell lines. After incubation, the water was removed by lyophilization, and the crude solid was analyzed by NMR. […] Additional information about imine formation was obtained from the H,C-HSQC spectrum (Figure S2). In this type of heteronuclear bidimensional spectrum, a proton–carbon direct bond correlation signal was obtained between the proton resonating at 8.15 ppm and the carbon resonating at 160.5 ppm.
# The mixtures were incubated at 37 °C for 48 h in order to simulate the in vitro conditions of antitumor determinations. After the incubation, all the samples were lyophilized, dissolved in DMSO-d6 and subjected to NMR spectroscopy analysis. The samples that indicated the imine formation were further investigated by recording the ^1H, ^15N HMBC and ^1H, ^13C HSQC NMR spectra. The ^1H-NMR and ^1H, ^15N HMBC NMR spectra of the glutamine dissolved in a mixture of 9/1 H2O/D2O were also provided as reference in order to determine which nitrogen was involved in the imine linkage. After the NMR studies, the same samples were diluted with DMSO to obtain a solution of 0.33 mM in order to provide their UV-vis spectra.
# NHDF = system: NHDF; parameters: method as in earlier work; settings: cited from earlier work
# HepG2 = settings: cited from earlier work
# MeWo = settings: cited from earlier work
# HeLa = settings: cited from earlier work
# MCF-7 = settings: reference cell empty, probably merged; cited from earlier work
# CT-26 = settings: cited from earlier work
# U87-MG = settings: cell line not clear from layout (U87-MG assumed); cited from earlier work
# [14] = Homo sapiens, MTS, tested 0.01-0.3 mM, read-out: Half maximal inhibition concentration (IC50)
# [15] = Mus musculus, CT26, MTS, tested 0.01-0.3 mM, read-out: Half maximal inhibition concentration (IC50)
# [16] = Homo sapiens, HeLa, 48 h, MTS, tested 0.01-0.3 mM, read-out: Half maximal inhibition concentration (IC50)
ability to bind Mg^2+ ions (in words) [7],solubility [11],Compound,IC50 [1],"IC50 [2, 14]",Selectivity index (SI) [2],IC50 [3],IC50 [4],IC50 (osteosarcoma (HOS) cells),radical scavenging capacity (in words) [6],Selectivity index (SI) [8],IC50 [9],IC50 [10],Selectivity index (SI) [12],also measured
–,–,CN(C)CCCN1c2ccccc2Sc2ccc(Cl)cc21 [Chlorpromazine],–,–,–,–,–,–,–,–,–,–,–,IC50 (Colo205): 10 µM
dative bond with magnesium,< 300 µM,"COCCOCCOCCN1c2ccccc2Sc2cc(C=O)ccc21 [PTF, 10-(triethylene glycol)-10H-phenothiazine-3-carbaldehyde]",147 µM,50 µM,3,108 µM,150 µM,> 300 µM,very low radical scavenging capacity,2.38,190 µM,186 µM,10,"viability at 100 µM ([2]; Homo sapiens, HepG2, 0.1 mM, 48 h, MTS, read-out: cell viability): 27%; IC50 ([2]; Homo sapiens, MTS, read-out: IC50): 52 µM; Selectivity index (SI) [3]: 1.5; viability at 48 h, 0.05 mM ([5]; 0.05 mM): 86%; viability at 48 h, 0.2 mM ([5]; 0.2 mM): 33%; viability at 100 µM ([8]; Mus musculus, CT26, CT-26, 0.1 mM, 48 h, MTS): 30%; IC50 ([8]; Mus musculus, CT26, MTS, read-out: IC50): 63 µM; viability at 50 µM ([12]; Homo sapiens, HeLa, 0.05 mM, 48 h, MTS, read-out: cell viability): 11%; IC50 ([12]; Homo sapiens, HeLa, 48 h, MTS, read-out: IC50): 15 µM"
formation of dative bonds,< 200 µM,COCCOCCOCCN1c2ccccc2Sc2cc(/C=N/CCc3ccc(S(N)(=O)=O)cc3)ccc21 [PTEA],239 µM,85 µM,1.25,138 µM,107 µM,> 300 µM,very low radical scavenging capacity,1.25,170 µM,183 µM,6.66,"ability to bind glutamine by imination/transimination (in words) [13]: direct transimination; IC50 [8, 15]: 80 µM; IC50 [12, 16]: 15 µM"
–,–,COc1cccc2c1C(=O)c1c(O)c3c(c(O)c1C2=O)C[C@@](O)(C(=O)CO)C[C@@H]3O[C@H]1C[C@H](N)[C@H](O)[C@H](C)O1 [Doxorubicin],–,–,–,–,–,–,–,–,–,–,–,IC50 (NHDF): 0.137 µM; IC50 (HepG2): 1.03 µM; IC50 (MeWo): 88 µM; IC50 (HeLa): 0.18 µM; IC50 (MCF-7): 0.07 µM; IC50 (CT-26): 10 µM
–,–,O=c1[nH]cc(F)c(=O)[nH]1 [5-Florouracil],–,–,–,–,–,–,–,–,–,–,–,"IC50 (NHDF): 25 µM; IC50 (HepG2): 253 µM; IC50 (MeWo): 61.5 µM; IC50 (HeLa; reference cell empty, probably merged): 677 µM; IC50 (CT-26): 300 µM"
–,–,OCCN1CCN(CCCN2c3ccccc3Sc3ccc(Cl)cc32)CC1 [Perphenazine],–,–,–,–,–,–,–,–,–,–,–,IC50 (U87-MG): 6.8 µM
formation of dative bonds,< 200 µM,"COCCOCCOCCN1c2ccccc2Sc2cc(/C=N/Cc3ccc(S(N)(=O)=O)cc3)ccc21 [PTMA, 4-((((10-(triethylene glycol)-10H-phenothiazin-3-yl)methylene)amino)methyl)benzenesulfonamide]",287 µM,83 µM,2.5,141 µM,200 µM,> 300 µM,very low radical scavenging capacity,2,> 300 µM,219 µM,6.89,"ability to bind glutamine by imination/transimination (in words) [13]: glutamine binding process took places in two steps; Selectivity index (SI) [3]: 1.42; IC50 [8, 15]: 107 µM; IC50 [12, 16]: 29 µM"
